# Test results taken from patent publication US9261498B2, “Biomarker for sensitivity to mTOR inhibitor therapy in kidney cancer” (The Regents of the University of California, priority 2005, dated 2016).
# Entries after “also recorded” stand apart in the source; their conditions may differ.
# Tested on: GLUT-1, CA-IX and VEGF
# Assay: Expression of HIF target genes GLUT-1, CA-IX and VEGF in VHL knockdown cells
# Assay type: cell-based, human
# Details: 1 and 10 nM CCI-779
# Protocol: (a) SN12C-CSCG and SN12C-VHLshRNA cell were treated with vehicle, 1 nM or 10 nM of CCI-779 and lysed 24 hours later. Lysates were subjected to immunoblotting for HIF-1α, HIF-2α, GLUT-1, CA-IX, p-eIF4G, p-S6 Ribosomal protein. Equal protein loading was verified using anti-β-actin antibody. (b) HIF-1α expression was probed by immunoblotting in SN12C-MSCV-5′TOP-HIF-1α cDNA (left panel) and SN12C-MSCV-HIF-1α cDNA (tight panel) post 24 hours of vehicle, 1 nM or 10 nM of CCI-779.
# Cells and xenograft tumors were lysed in ECB lysis buffer (see, e.g. Kondo et al., Cancer Cell 1, 237-46 (2002)) or high-detergent buffer (2% SDS), (see, e.g. Chen et al., Nat Med 10, 33-9 (2004)), respectively, supplemented with complete protease and phosphatase inhibitor cocktails (Calbiochem). […] Bound antibody was detected using enhanced chemiluminescence (ECL, Amersham). For VEGF ELISA quantification, cells were plated in 6 well plates (1×10^5 per well). […] Thirty-six hours later, VEGF ELISA (R&D Systems) was performed according to the manufacturer's instructions, using a Fisher Plate reader. […]
# Cells and xenograft tumors were lysed in ECB lysis buffer or high-detergent buffer (2% SDS), respectively, supplemented with complete protease and phosphatase inhibitor cocktails (Calbiochem). […] Bound antibody was detected using enhanced chemiluminescence (ECL, Amersham). […]
smiles,measurement,value
CO[C@H]1C[C@@H]2CC[C@@H](C)[C@@](O)(O2)C(=O)C(=O)N2CCCC[C@H]2C(=O)O[C@H]([C@H](C)C[C@@H]2CC[C@@H](OC(=O)C(C)(CO)CO)[C@H](OC)C2)CC(=O)[C@H](C)/C=C(\C)[C@@H](O)[C@@H](OC)C(=O)[C@H](C)C[C@H](C)/C=C/C=C/C=C/1C [CCI-779],"expression of GLUT-1, CA-IX and VEGF",similarly reduced; also recorded: decrease in the expression
